{"source": "patent US11542473B2", "about": "“Methods and compositions for generating hematopoietic cells” (priority 2016, dated 2023)", "key": {"[1]": {"tested_on": "hPSC-derived hematopoietic cells (iPSC line RB9-CB1)", "experiment": "hPSC-to-hematopoietic differentiation, flow cytometry of HSC-like surface phenotype (Example 2)", "assay_type": "cell-based, human", "conditions": "for HSC-like phenotype: specificity controls for cAMP, day 14; for frequency of HSC-like cells after inhibition / hematopoietic cell generation efficiency / blood emergence (CD43): inhibition on day 10 and day 12, analysis day 14; for concentration required to increase HSC-like phenotype as compared to Forskolin: day 14, representative experiment", "protocol": "Human iPSC line RB9-CB1 derived from cord blood endothelial cells was cultured on irradiated mouse embryonic fibroblasts (MEFs) in Dulbecco's Modified Eagle Medium:Nutrient Mixture F-12 (DMEM/F12) supplemented with 20% KnockOut-serum replacement (KOSR), 2 mM L-glutamine, 0.1 mM non-essential amino acids, 0.1 mM 2-mercaptoethanol and 10 ng/ml basic fibroblast growth factor, all from Thermo Fischer Scientific Inc. (Waltham, Mass., USA). The cells were incubated in a humidified incubator at […] and 5% CO2.\n(§1) Embryoid bodies (EBs) were prepared after incubating the pluripotent stem cell colonies with 2 mg/ml Dispase (Thermo Fischer Scientific Inc.), followed by gentle pipetting. The detached colonies were washed twice with 20% KOSR containing DMEM/F12, before plating in ultra low-adherence suspension culture dishes (Corning Inc., Corning, N.Y., USA) to form EBs for 8 days. During suspension culture, MesoTotal™ HPC/HSC Differentiation System (Primorigen Biosciences, Madison, Wis., USA) was used to specify the EBs towards mesoderm commitment. At day 8, EBs were plated on 0.08 μg/mm2 Matrigel™ (BD Biosciences, Franklin Lakes, N.J., USA) and further differentiation towards hematopoietic cells was carried out till day 14 in MesoTotal medium.\n(§2) Application of fresh medium and treatment with 10 μM Forskolin (Stemgent, Cambridge, Mass., USA), 500 μM IBMX (3-isobutyl-1-methylxanthine, Santa Cruz Biotechnology, Dallas, Tex., USA) was carried out at day 10 and day 12 of differentiation. To inhibit PKA and Epac, 50 μM PKA inhibitor (Rp-8-CPT-cAMPS) and 20 μM Epac inhibitor (ESI-09) (both from BIOLOG Life Science Institute, Bremen, Germany) were used (20 min pretreatment followed by cAMP induction) on day 10 and day 12 of differentiation and the cells were analyzed on day 14. To analyze hemogenic endothelium, PKA and Epac were inhibited on day 6 and day 8 and the cells were analyzed on day 10. The distance between center of an EB and outer edge of its cellular spread was analyzed using ImageJ (developed at the National Institutes of Health, USA). Colony Formation Assay"}, "[2]": {"tested_on": "differentiating human ES/iPS cells", "experiment": "hPS-to-blood differentiation, FACS analysis of hematopoietic subsets (Example 1)", "assay_type": "cell-based"}, "HSC egress from the BM": {"tested_on": "HSC egress from the BM", "conditions": "administration to mice; cited from earlier work"}, "[3]": {"tested_on": "hPSC-derived hematopoietic cells", "experiment": "ROS detection with CellROX Deep Red by flow cytometry", "assay_type": "cell-based, human", "conditions": "day 14; versus control", "protocol": "as §2"}, "[4]": {"tested_on": "adherent endothelial-like cells of plated EBs", "experiment": "Radial spreading of adherent endothelial-like cells from embryoid bodies (ImageJ)", "assay_type": "cell-based, human", "conditions": "in the absence or presence of Forskolin+IBMX", "protocol": "as §1, with “At day 8, EBs were plated on 0.08 μg/mm2 Matrigel™ (BD Biosciences, Franklin Lakes, N.J., USA) and further differentiation towards hematopoietic cells was carried out till day 14 in MesoTotal medium.” left out\nas §2, with “Colony Formation Assay” left out"}, "[5]": {"tested_on": "hemogenic endothelium phenotype cells (CD43-CD34+CXCR4-CD73-Vecad+)", "experiment": "Hemogenic endothelium phenotype by flow cytometry", "assay_type": "cell-based, human", "conditions": "inhibition on day 6 and day 8, analysis day 10; in the absence or presence of Forskolin+IBMX", "protocol": "as §2"}, "human cord blood": {"tested_on": "human cord blood", "conditions": "PGE2-mediated cAMP activation; cited from earlier work"}, "[6]": {"tested_on": "CXCR4 in hPSC-derived hematopoietic cells", "experiment": "CXCR4 surface expression by flow cytometry", "assay_type": "cell-based, human", "conditions": "with or without cAMP induction, compared to the control", "protocol": "as §2"}, "[7]": {"tested_on": "hematopoietic cells derived from human ES/iPS cells", "experiment": "Colony forming unit assay in methylcellulose (Example 1)", "assay_type": "cell-based", "protocol": "CFU potential of hematopoietic cells after the 14 day differentiation assay was assessed by plating 2×10^4 cells in Methocult […] (Stem Cell Technologies) supplemented with human SCF (25 ng/ml), GM-CSF (50 ng/ml), IL3 (25 ng/ml) and Erythropoietin (5 U/ml). Cells were incubated in a humidified incubator at 37° C., 5% CO2 for 14 days and colonies were quantified by bright-field microscopy."}, "[8]": {"conditions": "NE treatment (10 μM, 300 μM) at day 10 and 12, analysis day 14"}}}
{"compound": "C=C[C@@]1(C)CC(=O)[C@@H]2[C@@]3(C)CCCC(C)(C)[C@@H]3[C@H](O)[C@H](OC(C)=O)[C@@]2(C)O1", "note": "[1,9-dideoxy Forskolin, 1,9-Dideoxyforskolin]", "values": [{"measurement": "HSC-like phenotype", "setting": "[1]", "result": "cannot induce"}]}
{"compound": "Cc1ccc(OCC(O)C(C)NC(C)C)c2c1CCC2", "note": "(stereo not shown) [ADRB2 antagonist, ICI118,551]", "values": [{"measurement": "mediation of the norepinephrine effect through ADRB2", "setting": "[2]; addition of specific ADRB2 antagonist (ICI118,551 at 20 μM) to NE-treated cultures", "result": "unlikely to be mediated through this receptor"}]}
{"compound": "CNC[C@H](O)c1ccc(O)c(O)c1", "note": "[epinephrine]", "values": [{"measurement": "HSC egress from the BM", "setting": "HSC egress from the BM", "result": "increased"}]}
{"compound": "CC(C)Cn1c(=O)n(C)c(=O)c2[nH]cnc21", "note": "[IBMX, 3-isobutyl-1-methylxanthine]", "values": [{"measurement": "ROS levels in various hematopoietic phenotypes, including the HSC-like cells", "setting": "[3]", "result": "significantly lowered"}]}
{"compound": "Nc1ncnc2c1nc(Sc1ccc(Cl)cc1)n2[C@@H]1O[C@@H]2COP(O)(=S)O[C@H]2[C@H]1O", "note": "(stereo partly shown) [PKA inhibitor, Rp-8-CPT-cAMPS]", "values": [{"measurement": "frequency of HSC-like cells after inhibition", "setting": "[1]", "result": "no negative effect"}, {"measurement": "hematopoietic cell generation efficiency / blood emergence (CD43)", "setting": "[1]", "result": "no negative effect"}, {"measurement": "radial spreading of adherent endothelial-like cells", "setting": "[4]", "result": "did not have any effect"}, {"measurement": "hemogenic endothelial fraction", "setting": "[5]", "result": "no negative effect"}]}
{"compound": "CCCC(=O)Nc1ncnc2c1ncn2[C@@H]1O[C@@H]2COP(=O)(O)O[C@H]2[C@H]1OC(=O)CCC", "note": "[dibutyryl-cAMP, N6,O2-dibutyrl-adenosine-3′,5′-cyclic monophosphate]", "values": [{"measurement": "concentration required to increase HSC-like phenotype as compared to Forskolin", "setting": "[1]", "result": 10, "unit": "fold"}, {"measurement": "HSC-like phenotype", "setting": "[1]", "result": "upregulated"}]}
{"compound": "CCCCC[C@H](O)/C=C/[C@H]1[C@H](O)CC(=O)[C@@H]1C/C=C\\CCCC(=O)O", "note": "[Prostaglandin E2 (PGE2), Prostaglandin E2]", "values": [{"measurement": "human cord blood engraftment", "setting": "human cord blood", "result": "enhances"}]}
{"compound": "CC(C)(C)c1cc(C(=O)C(C#N)=NNc2cccc(Cl)c2)no1", "note": "[Epac inhibitor]", "values": [{"measurement": "frequency of HSC-like cells after inhibition", "setting": "[1]", "result": "decreased"}, {"measurement": "hematopoietic cell generation efficiency / blood emergence (CD43)", "setting": "[1]", "result": "reduced"}, {"measurement": "CXCR4 expression after Epac inhibition", "setting": "[6]", "result": "reduced"}, {"measurement": "radial spreading of adherent endothelial-like cells", "setting": "[4]", "result": "reduced"}, {"measurement": "hemogenic endothelial fraction", "setting": "[5]", "result": "decreased"}]}
{"compound": "NC[C@H](O)c1ccc(O)c(O)c1", "note": "[NE, Norepinephrine]", "values": [{"measurement": "colony formation (CFU frequency) in methylcellulose", "setting": "[7]; hematopoietic cells generated with 300 μM (NE300)", "result": "significant increase"}, {"measurement": "distribution of colony types", "setting": "[7]; hematopoietic cells generated with NE", "result": "not affected"}, {"measurement": "HSC-like phenotype in total viable cells", "setting": "[2]; 300 μM (NE300) at day 10 and day 12, analysis at day 14", "result": "significantly increased"}, {"measurement": "frequency of CD34high CD90high endothelial precursors", "setting": "[2]; NE added at 300 μM", "result": "trend for an increase"}, {"measurement": "blood fraction (CD43/45+ in total viable)", "setting": "[2]; [8]", "result": "unchanged"}, {"measurement": "progenitor fraction (CD34+ in CD43/45+ blood)", "setting": "[2]; [8]", "result": "unchanged"}, {"measurement": "HSC-like cells in the CD43/45+ blood population", "setting": "[2]; NE treatment at day 10 and 12, analysis day 14", "result": "specifically and significantly upregulated"}]}
{"compound": "Nc1ncnc2c1nc(Br)n2[C@@H]1O[C@@H]2COP(=O)(O)O[C@H]2[C@H]1O", "note": "[8-Br-cAMP, 8-bromo-adenosine-3′,5′-cyclic monophosphate]", "values": [{"measurement": "concentration required to increase HSC-like phenotype as compared to Forskolin", "setting": "[1]", "result": 10, "unit": "fold"}, {"measurement": "HSC-like phenotype", "setting": "[1]", "result": "upregulated"}]}
